Experimental data published in patent US11883398B2, “Dipeptidylpeptidase 4 inhibition enhances lymphocyte trafficking, improving both naturally occurring tumor immunity and immunotherapy” (INSTITUT PASTEUR, priority 2015, dated 2024).

Columns and labels:
B16F10 tumors = assay: Histology of B16F10 tumors (CD31, CD3, H&E); assay type: in vivo, mouse; conditions: untreated vs sitagliptin-treated mice
Protocol: B16F10 tumors were dissected and fixed in JB fixative (zinc acetate 0.5%, zinc chloride 0.05%, and calcium acetate 0.05% in Tris buffer, pH 7) for 48 hours, prior to being embedded in low-melting point paraffin (Poly Ethylene Glycol Distearate; Sigma, USA). 5 μm thick paraffin sections were deparafinized in absolute ethanol, air dried, and routinely stained with hematoxylin-eosin or used for immunolabelling. For immunohistochemistry, the following primary antibodies were used: anti-CD3 (rabbit α-human, clone A0452, DAKO, Carpinteria, CA) and anti-CD31 (rat a-mouse, clone 1/75e, BD Pharmingen, Franklin Lake, NJ, USA). CD31 immunolabelled sections were digitalized using a Zeiss Axio Scan Z.1 at ×20. For histomorphometry of blood vessels, CD31 positive profiles were manually delineated on digitalized images, using the “area” tool of the Zen software (Zeiss) at a magnification of 30%. The whole tumor surface was also delineated in the same way at a magnification of 2%. Mean number of blood vessels per mm2 and mean vessel area were then calculated for each group of mice.

B16F10 cells = assay: Model of metastatic melanoma (intravenous B16F10, lung metastatic foci); assay type: in vivo, mouse; conditions: 15 days after intravenous injection of B16F10 cells
Protocol: B16F10 and M04 (Ovalbumin-expressing B16F10 cells, gift from C. Reis e Sousa) tumor cells were cultured in DMEM (Gibco) supplemented with 10% FCS (PAA), 0.1 mM non-essential amino acids, 1 mM sodium pyruvate, 10 mM Hepes, 70 μM beta-mercaptoethanol and 23 μg/ml gentamycin (all from Gibco). CT26 colon carcinoma cells were cultured in RPMI (Gibco) supplemented as described for DMEM. Cells for injections were passaged 1-2 times after thawing, before use. WT and genetically modified mice were subcutaneously injected with 2×10^5 B16 or 5×10^5 CT26 cells in the shaved right flank. When indicated, mice received an intra-tumoral injection of 1 μg of recombinant mCXCL10, 5 μg CpG-A in DOPTAP or vehicle control. […] Tumor height and width were measured with a caliper and tumor volume was calculated (Elliptical volume=width^2×height×0.523). […] 15 days after tumor cell injection, lungs were dissected, placed in Fekete's solution and metastatic foci were counted. […]

mCXCL10 = conditions: sitagliptin vs control
Protocol: Plates were washed twice with 300 μL of PBS. Blocking was done with BSA 1% (proteinase free, Gibco), in PBS for 2h at room temperature. Plates were washed 3 times with 300 μL of 0.05% Tween-20 in PBS. Tumor and plasma samples were diluted in BSA 1% and incubated for 2h, at room temperature. To obtain a standard curve, and to control for the cross-reactivity of the detection antibody, dilutions of recombinant mCXCL10 (Peprotech) or DPP4-digested mCXCL10(3-77) were incubated in parallel. For detection of mCXCL10(1-77), biotinylated α-mCXCL10(1-77) (AbDSerotec, 0.5 μg/ml, clone AbD17185.1), Streptavidin-HRP (BD Biosciences) and 1-STEP ULTRA TMB (Thermo Scientific) were used.
Enzymatic reactions were stopped with HCL 1N and plates were read with 450 nm in a Lab-systems […] MS (Thermo) reader. […] Detection of mDPP4, mCCL22 and mCXCL12 was done with the DUOSET® ELISA kit (R&D). Detection of mVEGF, mCCL2 and mCCL3 was done with a multiplex kit (Invitrogen).

N[C@@H](CC(=O)N1CCn2c(nnc2C(F)(F)F)C1)Cc1cc(F)c(F)cc1F [sitagliptin] was tested, and the “number and diameter of tumor blood vessels (CD31 staining)” value (B16F10 tumors) was “no difference in the number, nor the diameter of blood vessels”, the “number of lung metastases” value (B16F10 cells) was “significantly reduced the number of lung metastases” and the “quantity of plasma mCCL2” value (mCXCL10; CpG-A intravenously) was “higher”. The “CpG-A-induced plasma total CXCL10” value (mCXCL10; WT mice, 5 μg CpG-A intravenously) was “stabilization of CpG-A-induced plasma CXCL10” and the “quantity of plasma mCXCL10(1-77)” value (mCXCL10; WT mice, CpG-A intravenously) was “significantly higher”.
